Entries after “also recorded” stand apart in the source; their conditions may differ.
Assays:
[1] = system: Control oocytes, not injected with SNORF36a mRNA; assay: Light-elicited currents in control Xenopus oocytes not injected with SNORF36a mRNA; assay type: cell-based, Xenopus laevis; details: control uninjected oocytes pre-incubated with ligand (100 nM, 24 h), n=10 oocytes
Experimental: (§1) In the present invention, oocytes were harvested from Xenopus laevis and injected with mRNA transcripts as previously described (Quick and Lester, 1994; Smith et al., 1997). SNORF36a RNA transcripts were synthesized using the T7 polymerase (“Message Machine”, Ambion) from the plasmid BO109 linearized with NotI. Oocytes were injected with 5-25 ng synthetic RNA and incubated for 3-8 days at 17° C. Dual electrode voltage clamp (Axon Instruments Inc.) was performed using 3 M KCl-filled glass microelectrodes having resistances of 1-2 MOhm. Unless otherwise specified, oocytes were voltage clamped at a holding potential of −80 mV. During recordings, oocytes were bathed in continuously flowing (1-3 ml/min) medium containing 96 mM NaCl, 2 mM KCl, 1.8 mM CaCl2, 1 mM MgCl2, 5 mM HEPES, pH 7.5 (ND96), and the appropriate ligand.
Experiments were carried out under minimal light conditions which required compound weighing, final dilutions and oocyte recordings to be performed under photographic darkroom lights (“Brightlab Junior” safelight). In some cases, the ligands were briefly exposed to room light (5-10 min.) during the weighing procedure. For eliciting physiological responses from oocytes, the light stimulus was a 60 W tungsten lamp set at a distance of 30 cm from the oocyte. […] All values are expressed as mean ± standard error of the mean.

[2] = system: vector-transfected Cos-7 cells; assay: Inositol phosphate assay in empty vector-transfected Cos-7 cells; assay type: cell-based; details: vector-transfected Cos-7 cells exposed to lamp light
Experimental: (§2) Human SNORF36a receptor-mediated activation of the inositol phosphate (IP) second messenger pathways was assessed by radiometric measurement of IP products.
(§3) Cells were plated at a density of 70,000 cells per well and allowed to incubate for 24 hours. The cells were then labeled with 0.5 μCi [^3H]myo-inositol overnight at 37° C., 5% CO2. Immediately before the assay, the medium was removed and replaced with 180 μL of Phosphate-Buffered Saline (PBS) containing 10 mM LiCl. The plates were then incubated for 20 min at 37° C., 5% CO2. Following the incubation, the cells were challenged with agonist (20 μl/well; 10× concentration) for 30 min at 37° C. and were simultaneously either exposed or not to a lamp light (50W) placed at approximately 30 cm distance from the cells. The challenge was terminated by the addition of 100 μL of 5% v/v trichloroacetic acid, followed by incubation at 4° C. for greater than 30 minutes. Total IPs were isolated from the lysate by ion exchange chromatography. Briefly, the lysed contents of the wells were transferred to a Multiscreen HV filter plate (Millipore) containing Dowex AGI-X8 (200-400 mesh, formate form). The filter plates were prepared adding 100 μL of Dowex AG1-X8 suspension (50% v/v, water: resin) to each well. […] 200 μL of scintillation cocktail was added to each well, and the radioactivity was determined by liquid scintillation counting.

SNORF36a [3] = target: T1, SNORF36a (Homo sapiens, UniProt Q9UHM6); assay: Inositol phosphate assay (phosphoinositide hydrolysis) in human SNORF36a-transfected Cos-7 cells; assay type: cell-based
T1 sequence (Q9UHM6 1-478): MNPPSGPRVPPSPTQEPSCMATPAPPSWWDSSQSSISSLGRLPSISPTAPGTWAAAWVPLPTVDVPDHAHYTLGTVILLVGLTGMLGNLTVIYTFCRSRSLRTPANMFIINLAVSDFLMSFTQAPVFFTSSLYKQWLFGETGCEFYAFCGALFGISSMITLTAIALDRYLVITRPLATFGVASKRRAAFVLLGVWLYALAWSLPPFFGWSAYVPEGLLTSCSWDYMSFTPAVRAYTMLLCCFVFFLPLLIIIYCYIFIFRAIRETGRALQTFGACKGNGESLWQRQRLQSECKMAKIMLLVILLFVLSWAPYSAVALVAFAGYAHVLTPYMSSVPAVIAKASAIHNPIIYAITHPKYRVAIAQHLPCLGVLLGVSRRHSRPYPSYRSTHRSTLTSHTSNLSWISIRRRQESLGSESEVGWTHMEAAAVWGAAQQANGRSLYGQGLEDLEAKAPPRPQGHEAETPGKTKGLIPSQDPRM
Experimental: as §2, §3

SNORF36a [4] = target: T1, SNORF36a; assay: Light-elicited currents in voltage-clamped Xenopus oocytes expressing SNORF36a; assay type: cell-based; set-up: expressed in transfected cells; host or cells: Xenopus laevis oocytes injected with synthetic mRNA transcribed from plasmid BO109; details: pre-incubated in the dark 24-48 h at 100 nM in ND96
Experimental: as §1
Experiments were carried out under minimal light conditions which required compound weighing, final dilutions and oocyte recordings to be performed under photographic darkroom lights (“Brightlab Junior” safelight). In some cases, the ligands were briefly exposed to room light (5-10 min.) during the weighing procedure. For eliciting physiological responses from oocytes, the light stimulus was a 60 W tungsten lamp set at a distance of 30 cm from the oocyte. Drugs were applied either by superfusion, switching from a series of gravity fed perfusion lines, or by local perfusion from a 10 μl glass capillary tube fixed at a distance of 0.5 mm from the oocyte. Experiments were carried out at room temperature. All values are expressed as mean ± standard error of the mean.

SNORF36a [5] = target: T1, SNORF36a; assay: Intracellular Ca2+ mobilization (FLIPR) in human SNORF36a-transfected Cos-7 cells; assay type: cell-based; details: for EC50: photobleached SNORF36a-transfected Cos-7 cells, FLIPR, n=3
Experimental: The intracellular free calcium (Ca^2+) concentration may be measured by the Fluorescence Imager Plate Reader (FLIPR™).
Cells transfected with appropriate DNA as described earlier were plated into clear, flat-bottom, black-wall 96-well plates (Costar) at a density of 80,000-150,000 cells per well and allowed to incubate for 24 hr at 5% CO2, 37° C. Whenever necessary, the cells were placed in a waterbath maintained at 37° C. and were exposed to a lamp light (50W) placed at a distance of approximately 30 cm, 90 to 120 min before the imaging. The growth medium was aspirated and 100 μl of loading medium containing fluo-3 dye was added to each well 60 min before the imaging. The loading medium contained: Hank's BSS (without phenol red) (Gibco), 20 mM HEPES (Sigma), 0.1 or 1% BSA (Sigma), dye/pluronic acid mixture (e.g. 1 mM Flou-3, AM (Molecular Probes) and 10% pluronic acid (Molecular Probes) mixed immediately before use), and 2.5 mM probenecid (Sigma) (prepared fresh). The cells were allowed to incubate for about 1 hour at 5% CO2, 37° C.
Before or during the incubation of cells with the dye-loading medium, the test compound plate was prepared. Since retinoids are chemically unstable and can undergo rapid photoisomerization (Hu et al., 1994), care was taken to weigh, dissolve and prepare appropriate concentrations of the test compound under photographic darkroom lights. The test compounds were diluted in wash buffer (Hank's BSS (without phenol red), 20 mM HEPES, 2.5 mM probenecid) to a 4× final concentration and aliquoted into a clear v-bottom plate (Nunc). The test compounds were protected from light till their addition to cells. Following the incubation with the dye-loading medium, the cells were washed to remove the excess dye. A Denley plate washer was used to gently wash the cells 4 times and leave a 100 μl final volume of wash buffer in each well. The cell plate was placed in the center tray and the test compound plate was placed in the right tray of the FLIPR. The FLIPR software was setup for the experiment, the experiment was run and the data were collected. For the agonist experiment, the sampling rate in the FLIPR was every 1 sec for the first minute and every 2 sec for the next two minutes. In this paradigm, the test compound was added after recording base line for the first 10 sec. For the antagonist experiment, the sampling rate in the FLIPR was every 1 sec for the first minute, every 6 sec for the next 5 minutes, every 1 sec for the next one minute followed by every 2 sec next two minutes. To evaluate the antagonist activity, the test compound was added to the cells 10 sec after commencing the recording and the agonist was added at 310 sec of the recording. Baseline subtraction and negative control corrections were performed on the traces. The collected data were then analyzed using the Excel spreadsheet program.

[6] = antagonist at 10 μM, hSNORF36a-transfected Cos-7 cells, n=2

Structure (SMILES)	response to light [1]	response to light stimulus after pre-incubation (SNORF36a [4])	EC50 (SNORF36a [5]) [nM]	other results
CC1=C(/C=C/C(C)=C/C=C/C(C)=C/C=O)C(C)(C)CCC1 [all-trans-retinal]	fails to respond to light; also recorded: did not respond to light	rapidly desensitizing Cl^− currents	263	3H-IP accumulation [2]: not in vector-transfected cells; 3H-IP accumulation (SNORF36a [3]; SNORF36a-transfected Cos-7 cells exposed to lamp light, n=2): Concentration-dependent increase; 3H-IP levels (SNORF36a [3]; SNORF36a-transfected Cos-7 cells not exposed to light, n=1): did not change
CC1=C(/C=C/C(C)=C/C=C/C(C)=C/C=O)C(C)(C)CCC1 [13-cis-retinal]	did not respond to light	rapidly desensitizing Cl^− currents	477	
CC(=O)/C=C/C1=C(C)CCCC1(C)C [β-ionone]				nature of the antagonism (SNORF36a [5]; 10 μM against all-trans-retinal and 9-cis-retinal, hSNORF36a-transfected Cos-7 cells): insurmountable; antagonism of 9-cis-retinal-induced Ca2+ mobilization (SNORF36a [5]; [6]): significantly antagonized; antagonism of all-trans-retinal-induced Ca2+ mobilization (SNORF36a [5]; [6]): significantly antagonized
CC1=C(/C=C/C(C)=C\C=C\C(C)=C\C=O)C(C)(C)CCC1 [9-cis-retinal]			152	
CC1=C(/C=C/C(C)=C/C=C/C(C)=C/C(=O)O)C(C)(C)CCC1 [ATRA, all-trans-retinoic acid]		rapidly desensitizing Cl^− currents		

Source: patent US7037665B1, “Compositions comprising SNORF36 receptor compounds” (H. Lundbeck A/S, priority 1999, dated 2006)
